The test system of series [1] is HeLa cells. Briefly: Colocalization of Compound 1 with ER-Tracker Red, confocal microscopy. Type of series: cell-based. The conditions noted are these: 10 μM Compound 1 and 1 μM ER-Tracker Red, 30 minutes. Here is the method: FIGS. 11A to 11C show fluorescence images of mitochondria in a cell by Compound 1 (excitation at 405 nm/emission at 490 nm to 590 nm) (FIG. 11A), ER(endoplasmic reticulum)-tracker Red (excitation at 559 nm/emission at 576 nm to 675 nm) (FIG. 11B), and Compound 1 and ER-tracker Red merged (FIG. 11C), respectively, acquired by confocal microscopy after HeLa cells were incubated with 10 μM Compound 1 and 1 μM ER-tracker Red for 30 min, according to an example of the present disclosure.
Referring to FIGS. 11A to 11C, HeLa cells were incubated with 10 μM Compound 1 and 1 μM ER-Tracker Red for 30 minutes and a fluorescent image of the mitochondria in the cells was obtained by confocal microscopy.

The target of series [2] is T1, HSA (Homo sapiens, UniProt P02768). The series is described as follows: Fluorescent imaging of various proteins. The settings on record: 3 μM Compound 1, various proteins in DMSO, 0.5 hours and 1.5 hours. Type of series: biochemical. Here is the method:
FIGS. 14D(i) to 14D(vi) show fluorescence imaging of proteins measured after incubating 3 μM Compound 1 with various proteins in DMSO for 0.5 hours and 1.5 hours, respectively (λex=410 nm), according to an example of the present disclosure.
After 3 μM Compound 1 and various types of proteins in DMSO were incubated for 0.5 hours and 1.5 hours, fluorescence intensity profiles and fluorescent images depending on the types of proteins were compared.

Series [3] deals with HeLa cells. Briefly: Cytotoxicity test (MTT). Type of series: cell-based. The conditions noted are these: 30 μM Compound 1, 24 hours, MTT 4 hours, untreated sample = 100%. Here is the method: Referring to FIG. 13, HeLa cells were treated with various concentrations of Compound 1 for 24 hours, cultured in a medium containing MTT for 4 hours, and then the viability of the cells depending on the concentration of Compound 1 was checked. When the absorbance of a sample not treated with Compound 1 was set to 100%, it was confirmed that the cells treated with 30 μM Compound 1 survived about 80%.

In series [4] the test system is mitochondria in HeLa cells. The series is described as follows: Colocalization of Compound 1 with MitoTracker Deep Red, confocal microscopy. The format is cell-based. The conditions noted are these: 10 μM Compound 1 and 50 nM MitoTracker Deep Red, 30 minutes. As for the experimental part:
FIGS. 10A to 10C show fluorescence images of mitochondria in a cell by Compound 1 (excitation at 405 nm/emission at 490 nm to 590 nm) (FIG. 10A), Mitotracker Deep Red (excitation at 635 nm/emission at 655 nm to 755 nm) (FIG. 10B), and Compound 1 and Mitotracker Deep Red merged (FIG. 10C), respectively, acquired by confocal microscopy after HeLa cells were incubated with 10 μM Compound 1 and 50 nM Mitotracker Deep Red for 30 min, according to an example of the present disclosure.
Referring to FIGS. 10A to 10E, HeLa cells were incubated with 10 μM Compound 1 and 50 nM MitoTracker Deep Red for 30 minutes and a fluorescent image of the mitochondria in the cells was obtained by confocal microscopy.

The target in series [5] is T1, HSA. The series is described as follows: Fluorescent imaging of HSA protein at various pH values. The format is biochemical. The conditions noted are these: buffer solutions at pH 7.4, pH 7.5 and pH 8.5. As for the experimental part:
After Compound 1 and HSA protein were incubated in buffer solutions at various pH values, fluorescence intensity profiles and fluorescent images depending on pH were compared.

T1 sequence (P02768 25-609): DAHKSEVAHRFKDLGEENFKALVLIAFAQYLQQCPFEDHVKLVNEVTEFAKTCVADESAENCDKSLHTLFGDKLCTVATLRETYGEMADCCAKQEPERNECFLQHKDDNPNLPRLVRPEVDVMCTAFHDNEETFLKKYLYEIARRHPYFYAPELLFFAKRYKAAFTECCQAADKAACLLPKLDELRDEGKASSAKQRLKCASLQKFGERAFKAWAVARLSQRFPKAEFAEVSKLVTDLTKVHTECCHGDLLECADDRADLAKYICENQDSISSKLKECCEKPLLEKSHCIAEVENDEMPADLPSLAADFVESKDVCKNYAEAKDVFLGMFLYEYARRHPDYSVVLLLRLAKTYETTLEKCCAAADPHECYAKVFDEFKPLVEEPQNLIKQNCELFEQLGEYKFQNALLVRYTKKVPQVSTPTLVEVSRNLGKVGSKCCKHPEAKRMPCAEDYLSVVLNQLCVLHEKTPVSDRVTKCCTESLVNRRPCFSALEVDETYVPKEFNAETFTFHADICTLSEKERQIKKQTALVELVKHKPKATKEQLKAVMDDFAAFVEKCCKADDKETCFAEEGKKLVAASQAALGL

As for `O=C(c1ccccc1)c1ccccc1NCc1ccccc1B(O)O` [Compound 1], in the series on HeLa cells [1], the Pearson correlation coefficient came out at 0.85±0.01 and the “degree of agreement of fluorescent image” value is reported as “about 85%”. In addition, on HSA [2], the “fluorescent imaging performance and selectivity among proteins” value was “fluorescent imaging performance and selectivity specific to HSA”. For the same compound, the “cell viability (survival)” value with HeLa cells [3] was “about 80%”. In addition, in series [4], the Pearson correlation coefficient worked out at 0.81±0.02 and the “degree of agreement of fluorescent image” value is recorded as “about 81%”. The “fluorescent imaging performance for HSA depending on pH” value on HSA [5] was “fluorescent imaging performance specific to HSA protein”.

Values taken from patent publication US12181409B2, “Cell imaging composition and cellular material imaging method using same” (EWHA UNIVERSITY-INDUSTRY COLLABORATION FOUNDATION, priority 2019, dated 2024).
